According to PubChem BioAssay AID330 (DTP/NCI, 2004):
“And” between values parts separate entries of the source, which are not always exact repeats. Identical values can stand only once. Inconclusive results and toxic doses are left out.

Tested on: P388 leukemia ip, CD2F1 mice, survival T/C
Experiment: NCI In Vivo Anticancer Drug Screen. Data for tumor model P388 Leukemia (intraperitoneal) in CD2F1 (CDF1) mice
Conditions: endpoint: median survival time, higher = longer survival
How it was run: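 Mice carrying the transplanted tumor received test compound or vehicle. Survival was recorded in each group, and the value is the treated-group measurement divided by that of the vehicle-treated control group.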

[1] = dose: 60.0 mg/kg/injection, schedule: Q01DX005 (ip), vehicle: Klucel (hydroxypropylcellulose) (HPC)
[2] = dose: 120.0 mg/kg/injection, schedule: Q01DX005 (ip), vehicle: Klucel (hydroxypropylcellulose) (HPC)
[3] = dose: 240.0 mg/kg/injection, schedule: Q01DX005 (ip), vehicle: Klucel (hydroxypropylcellulose) (HPC)
[4] = dose: 50.0 mg/kg/injection, schedule: Q01DX005 (ip), vehicle: saline
[5] = dose: 100.0 mg/kg/injection, schedule: Q01DX005 (ip), vehicle: saline
[6] = dose: 200.0 mg/kg/injection, schedule: Q01DX005 (ip), vehicle: saline

In the case of `Cc1ccc(NCCN2CCCCC2)c2c(=O)c3ccc(Cl)cc3sc12`, the T/C [1] was 94 % of control, the T/C [2] was 86 % of control and the T/C [3] was 97 % of control.

`CCc1nc(N)nc(N)c1-c1ccc(Cl)c([N+](=O)[O-])c1` was tested, and the T/C (dose: 0.78 mg/kg/injection, schedule: Q01DX009 (ip), vehicle: distilled water + Tween-80) was 105 % of control, the T/C (dose: 3.13 mg/kg/injection, schedule: Q01DX009 (ip), vehicle: distilled water + Tween-80) was 120 % of control and 123 % of control and the T/C (dose: 6.25 mg/kg/injection, schedule: Q01DX009 (ip), vehicle: distilled water + Tween-80) was 170 % of control. For the same compound, the T/C (dose: 12.5 mg/kg/injection, schedule: Q01DX009 (ip), vehicle: distilled water + Tween-80) was 163 % of control.

`C=C=C(C)CN(CC)CC` was tested, and the T/C [4] was 108 % of control, the T/C [5] was 107 % of control and the T/C [6] was 108 % of control.

With `NC(=S)n1nc(-c2cccs2)c(N=Nc2ccc(Cl)cc2)c1C(F)(F)F` the T/C [1] was 87 % of control and the T/C [2] was 93 % of control.

With `Cc1cc(=O)n(-c2ccc(F)cc2)[nH]1` the T/C [1] was 89 % of control, the T/C [2] was 92 % of control and the T/C [3] was 90 % of control.

With `c1ccc2c(c1)c1cccc3sc4cccc2c4c31` the T/C (dose: 50.0 mg/kg/injection, schedule: Q01DX005 (ip), vehicle: saline with Tween-80) was 99 % of control, the T/C (dose: 100.0 mg/kg/injection, schedule: Q01DX005 (ip), vehicle: saline with Tween-80) was 96 % of control and the T/C (dose: 200.0 mg/kg/injection, schedule: Q01DX005 (ip), vehicle: saline with Tween-80) was 92 % of control.

With `O=c1[nH]c(=O)n(C2CC(O)C(CO)O2)cc1F` (stereo not drawn) the T/C (dose: 10.0 mg/kg/injection, schedule: Q01DX010 (ip), vehicle: saline) was 163 % of control, the T/C (dose: 12.5 mg/kg/injection, schedule: Q04DX002 (ip), vehicle: water) was 108 % of control and the T/C (dose: 20.0 mg/kg/injection, schedule: Q01DX009 (ip), vehicle: saline) was 155 % of control. The T/C (dose: 20.0 mg/kg/injection, schedule: Q01DX010 (ip), vehicle: saline) was 181 % of control, the T/C (dose: 38.0 mg/kg/injection, schedule: Q01DX009 (ip), vehicle: saline) was 160 % of control and the T/C (dose: 40.0 mg/kg/injection, schedule: Q01DX009 (ip), vehicle: saline) was 117 % of control. For the same compound, the T/C (dose: 40.0 mg/kg/injection, schedule: Q01DX010 (ip), vehicle: saline) was 222 % of control, the T/C (dose: 49.0 mg/kg/injection, schedule: Q01DX009 (ip), vehicle: saline) was 159 % of control and 167 % of control and the T/C [4] was 114 % of control. The T/C (dose: 56.0 mg/kg/injection, schedule: Q01DX009 (ip), vehicle: saline) was 123 % of control, the T/C (dose: 75.0 mg/kg/injection, schedule: Q01DX009 (ip), vehicle: saline) was 185 % of control and the T/C (dose: 80.0 mg/kg/injection, schedule: Q01DX009 (ip), vehicle: saline) was 92 % of control. For the same compound, the T/C (dose: 100.0 mg/kg/injection, schedule: Q01DX001 (ip), vehicle: saline) was 110 % of control, the T/C [5] was 98 % of control and the T/C (dose: 110.0 mg/kg/injection, schedule: Q01DX009 (ip), vehicle: saline) was 103 % of control. For the same compound, the T/C (dose: 120.0 mg/kg/injection, schedule: Q01DX009 (ip), vehicle: saline) was 81 % of control, the T/C (dose: 180.0 mg/kg/injection, schedule: Q01DX009 (ip), vehicle: saline) was 83 % of control and the T/C (dose: 200.0 mg/kg/injection, schedule: Q01DX001 (ip), vehicle: saline) was 111 % of control. For the same compound, the T/C [6] was 95 % of control, the T/C (dose: 240.0 mg/kg/injection, schedule: Q04DX002 (ip), vehicle: saline) was 157 % of control and the T/C (dose: 350.0 mg/kg/injection, schedule: Q04DX003 (ip), vehicle: saline) was 168 % of control. The T/C (dose: 400.0 mg/kg/injection, schedule: Q04DX002 (ip), vehicle: saline) was 164 % of control and the T/C (dose: 400.0 mg/kg/injection, schedule: Q04DX003 (ip), vehicle: saline) was 100 % of control.

With `CN(Cc1ccccc1)C(=O)C(=O)c1c[nH]c2ccccc12` the T/C (dose: 100.0 mg/kg/injection, schedule: Q01DX009 (ip), vehicle: saline with Tween-80) was 86 % of control and the T/C (dose: 200.0 mg/kg/injection, schedule: Q01DX009 (ip), vehicle: saline with Tween-80) was 90 % of control.
